The record followed here is patent US6528528B2 (Warner-Lambert Company, priority 1997, dated 2003).

The first experiment has as its target T1, rabbit reticulocyte 15-LO (Oryctolagus cuniculus, UniProt P12530).
T1 construct: Fifteen-lipoxygenase was obtained from phenylhydrazine-treated rabbits and purified per the method of Rapoport; from tissue; host or cells: reticulocytes of phenylhydrazine-treated rabbits
T1 sequence (P12530 1-663): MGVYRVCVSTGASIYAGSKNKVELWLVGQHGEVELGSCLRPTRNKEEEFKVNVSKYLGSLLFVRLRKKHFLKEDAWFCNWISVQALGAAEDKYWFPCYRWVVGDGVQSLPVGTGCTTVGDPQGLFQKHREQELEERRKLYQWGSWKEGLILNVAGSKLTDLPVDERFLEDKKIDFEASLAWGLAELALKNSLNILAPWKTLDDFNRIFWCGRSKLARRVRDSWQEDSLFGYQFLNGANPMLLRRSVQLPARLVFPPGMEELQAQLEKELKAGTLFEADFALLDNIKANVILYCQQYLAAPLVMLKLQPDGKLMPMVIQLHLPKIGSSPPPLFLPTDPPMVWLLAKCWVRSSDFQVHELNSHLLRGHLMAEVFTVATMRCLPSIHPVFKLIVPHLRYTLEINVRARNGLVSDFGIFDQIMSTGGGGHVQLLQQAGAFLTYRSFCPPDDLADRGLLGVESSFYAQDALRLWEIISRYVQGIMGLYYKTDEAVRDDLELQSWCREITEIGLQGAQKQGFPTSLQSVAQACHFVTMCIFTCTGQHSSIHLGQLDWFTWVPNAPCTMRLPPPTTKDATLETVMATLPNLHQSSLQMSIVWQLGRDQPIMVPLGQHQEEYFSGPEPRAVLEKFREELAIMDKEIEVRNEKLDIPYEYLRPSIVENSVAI
The experiment can be described thus: Rabbit Reticulocyte 15-LO Assay (h15LO). It counts as biochemical. The conditions noted are these: Table 2; 2U rabbit reticulocyte 15-LO, 174 μM linoleic acid, 15 minutes at 4° C. In a few lines:
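Purified rabbit reticulocyte 15-LO (2U) incubated with inhibitor and 174 μM linoleic acid in PBS with 0.2% Na cholate for 15 minutes at 4° C. 13-HPODE quantified by peak area against 13-HODE standard curve; % inhibition relative to uninhibited reaction.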
`COc1ccc(C(=O)Nc2ccccc2)cc1NCc1cccc(Cl)c1` [Example 231, 3-(3-Chloro-benzylamino)-4-methoxy-N-phenyl-benzamide]: it took 224 nM to reach half-maximal inhibition (IC50).
With `COc1ccc(NC(=O)c2ccc(Cl)c(Cl)c2)cc1NCc1cccc(F)c1` [Example 244, 3,4-Dichloro-N-[3-(3-fluoro-benzylamino)-4-methoxy-phenyl]-benzamide], the IC50 (in general, the concentration that gives 50% inhibition) worked out at 86 nM.
`COc1ccc(C(=O)Nc2ccccc2)cc1CNC(=S)Nc1cc(Cl)cc(Cl)c1` [Example 247, 3-[3-(3,5-Dichloro-phenyl)-thioureidomethyl]-4-methoxy-N-phenyl-benzamide] returned an IC50 of 40 nM.
For the compound `COc1ccc(C(=O)Nc2ccccc2)cc1NS(=O)(=O)c1cc(Cl)cc(Cl)c1` [Example 248, 3-(3,5-Dichloro-benzenesulfonylamino)-4-methoxy-N-phenyl-benzamide], the IC50 was 46 nM.
`COc1ccc(C(=O)Nc2ccccc2)cc1CNS(=O)(=O)c1cc(Cl)cc(Cl)c1` [Example 249, 3-[(3,5-Dichloro-benzenesulfonylamino)-methyl]-4-methoxy-N-phenyl-benzamide] returned an IC50 of 58 nM.
Consider `COc1ccc(C(=O)Nc2ccc(F)c(F)c2)cc1NCc1cccs1` [Example 258, 4-Methoxy-3-[(thiophen-2-ylmethyl)-amino]-N-(3,4-difluoro-phenyl)-benzamide], for which the IC50 is 35 nM.
Same read-out and setting: under `COc1ccc(C(=O)Nc2ccccc2)cc1NCc1cccs1` [Example 259, 4-Methoxy-3-[(thiophen-2-ylmethyl)-amino]-N-phenyl-benzamide] stands 137 nM.
With `COc1ccc(C(=O)Nc2ccc(F)cc2)cc1NCc1cccs1` [Example 260, 4-Methoxy-3-[(thiophen-2-ylmethyl)-amino]-N-(4-fluoro-phenyl)-benzamide], inhibition was half-maximal at 186 nM (IC50).

The same experiment, now with this note: Table 2; concentration not given.
On to `COc1ccc(C(=O)Nc2ccc(F)c(F)c2)cc1NCc1ccccc1` [Example 227, 3-Benzylamino-4-methoxy-N-(3,4-difluoro-phenyl)-benzamide], for which the “h15LO, value given as bare %” value is listed as 95.74%.
In the case of `COc1ccc(C(=O)Nc2ccccc2)cc1NCc1ccc([N+](=O)[O-])c(O)c1` [Example 228, 3-(3-Hydroxy-4-nitro-benzylamino)-4-methoxy-N-phenyl-benzamide], the “h15LO, value given as bare %” value was 92.92%.
`COc1ccc(C(=O)Nc2ccccc2)cc1NCc1cccc(C#N)c1` [Example 229, 3-(3-Cyano-benzylamino)-4-methoxy-N-phenyl-benzamide]: the “h15LO, value given as bare %” value is 92.70%.
For `COc1ccc(C(=O)Nc2ccc(F)c(F)c2)cc1NCc1cccc(C(=O)O)c1` [Example 230, 3-{[5-(3,4-Difluoro-phenylcarbamoyl)-2-methoxy-phenylamino]-methyl}-benzoic Acid], the “h15LO, value given as bare %” value is listed as 92.57%.
In the case of `COc1ccc(C(=O)Nc2ccccc2)cc1NCc1ccc(C(C)(C)C)cc1` [Example 232, 3-(4-tert-Butyl-benzylamino)-4-methoxy-N-phenyl-benzamide], the “h15LO, value given as bare %” value came to 80.36%.
Regarding `COc1ccc(C(=O)Nc2ccccc2)cc1NCc1ccc(C#N)cc1` [Example 233, 3-(4-Cyano-benzylamino)-4-methoxy-N-phenyl-benzamide], the “h15LO, value given as bare %” value is recorded as 73.46%.
For the compound `COc1ccc(C(=O)Nc2ccc(F)c(F)c2)cc1NCc1ccc(C(=O)O)cc1` [Example 234, 4-{[5-(3,4-Difluoro-phenylcarbamoyl)-2-methoxy-phenylalino]-methyl}-benzoic Acid], the “h15LO, value given as bare %” value came to 71.56%.
Consider `CCCOc1ccc(CNc2cc(C(=O)Nc3ccccc3)ccc2OC)cc1` [Example 235, 4-Methoxy-3-(4-propoxy-benzylamino)-N-phenyl-benzamide], for which the “h15LO, value given as bare %” value was determined as 67.26%.
For `COc1ccc(C(=O)Nc2ccccc2)cc1NCc1ccc(-c2ccccc2)cc1` [Example 236, 3-[(Biphenyl-4-ylmethyl)-amino]-4-methoxy-N-phenyl-benzamide], the “h15LO, value given as bare %” value stood at 64.09%.
`COc1ccc(C(=O)Nc2ccccc2)cc1NCc1ccc(C)cc1` [Example 237, 4-Methoxy-3-(4-methyl-benzylamino)-N-phenyl-benzamide]: the “h15LO, value given as bare %” value was 64%.
On the same count and under the same terms, then `COc1ccccc1CNc1cc(C(=O)Nc2ccccc2)ccc1OC` [Example 238, 4-Methoxy-3-(2-methoxy-benzylamino)-N-phenyl-benzamide], with 60%; and `CCCCc1ccc(CNc2cc(C(=O)Nc3ccccc3)ccc2OC)cc1` [Example 239, 3-(4-Butyl-benzylamino)-4-methoxy-N-phenyl-benzamide], with 58.44%.
In the case of `COc1ccc(C(=O)Nc2ccc(Cl)c(Cl)c2)cc1NCc1cccc(F)c1` [Example 240, 3-(3-Fluoro-benzylamino)-4-methoxy-N-(3,4-dichloro-phenyl)-benzamide], the “h15LO, value given as bare %” value is 58.09%.
Regarding `COc1ccc(C(=O)Nc2ccccc2)cc1NCc1cccc(C(=O)O)c1` [Example 241, 3-[(2-Methoxy-5-phenylcarbamoyl-phenylamino)-methyl]-benzoic Acid], the “h15LO, value given as bare %” value is recorded as 56.33%.
With `COc1ccc(C(=O)Nc2ccccc2)cc1NCc1ccc(C)c(C)c1` [Example 242, 3-(3,4-Dimethyl-benzylamino)-4-methoxy-N-phenyl-benzamide], the “h15LO, value given as bare %” value was found to be 50%.
With `COc1ccc(C(=O)Nc2ccccc2)cc1NCc1ccc(C(C)C)cc1` [Example 243, 3-(4-Isopropyl-benzylamino)-4-methoxy-N-phenyl-benzamide], the “h15LO, value given as bare %” value stood at 49.19%.
As for `COc1ccc(NC(=O)c2ccc(F)c(F)c2)cc1NCc1cccc(O)c1` [Example 245, 3,4-Difluoro-N-[3-(3-hydroxy-benzylamino)-4-methoxy-phenyl]-benzamide], the “h15LO, value given as bare %” value is 98.02%.
Still for that read-out and setting: under `COc1ccc(NC(=O)c2ccc(F)c(F)c2)cc1NCc1cccc(C(=O)O)c1` [Example 246, 3-{[5-(3,4-Difluoro-benzoylamino)-2-methoxy-phenylandno]-methyl}-benzoic Acid] stands 59.75%; under `COc1ccc(C(=O)Nc2ccccc2)cc1N(S(=O)(=O)c1cc(Cl)cc(Cl)c1)S(=O)(=O)c1cc(Cl)cc(Cl)c1` [Example 251, 3-[Bis[(3,5-dichlorophenyl)sulfonyl]amino]-4-methoxy-N-phenyl-benzamide], 62.01%; under `COc1ccc(C(=O)Nc2ccccc2)cc1NC(=S)Nc1cccc([N+](=O)[O-])c1` [Example 254, 4-Methoxy-3-[3-(3-nitro-phenyl)-thioureido]-N-phenyl-benzamide], 51%.
Turning to `Cc1ccc(C(=O)Nc2ccccc2)cc1NC(=O)c1cc(Cl)cc(Cl)c1` [Example 255, 3-[(3,5-Dichlorobenzoyl)amino]-4-methyl-N-phenyl-benzamide], the “h15LO, value given as bare %” value came out at 47%.
In the case of `COc1ccc(C(=O)Nc2ccc(Cl)c(Cl)c2)cc1NCc1cccs1` [Example 261, 4-Methoxy-3-[(thiophen-2-ylmethyl)-amino]-N-(3,4-dichloro-phenyl)-benzamide], the “h15LO, value given as bare %” value turned out to be 98.57%.
`COc1ccc(C(=O)Nc2cccnc2)cc1NCc1cccs1` [Example 262, 4-Methoxy-3-[(thiophen-2-ylmethyl)-amino]-N-pyridin-3-yl-benzamide]: the “h15LO, value given as bare %” value was 67.58%.
